# Data published in BindingDB's records for doi:10.1016/j.bmcl.2008.03.029 (Gifu University, 2008).
# Assay: Inhibition of human recombinant SAHH at 1000 uM
smiles,measurement,value
"Nc1ncnc2c1ncn2[C@@H]1CC[C@@H](O)[C@H]1O [(1R,2S,3R)-3-(6-amino-9H-purin-9-yl)cyclopentane-1,2-diol]",IC50,18 µM
